Measurements: PMC6216040, “Repurposing of an old drug: In vitro and in vivo efficacies of buparvaquone against Echinococcus multilocularis” (International Journal for Parasitology: Drugs and Drug …, 2018)
Where two headings read alike, the source gives them in different places.

Tested on: E. multilocularis metacestodes
Assay: PGI-assay: drug-induced damage on in vitro cultured metacestodes (Pathogen Box screening cascade and EC50)
Assay type: cell-based, Echinococcus multilocularis
Details: for cytotoxicity at 10 µM: Echinococcus multilocularis
[1] = 10 µM, singlets, 5 days of incubation
[2] = 10 µM, singlets, 12 days of incubation
[3] = confirmatory screening at 10 µM in triplicates, 5 days of incubation, values as % of Tx-100 control
[4] = confirmatory screening at 10 µM in triplicates, 12 days of incubation, values as % of Tx-100 control

Row | SMILES | PGI release, % of the Tx-100 control, 5d [1] [%] | PGI release, % of the Tx-100 control, 12d [2] [%] | other results
1 | Cc1nc(-c2ccccn2)nc(N(C)CCc2ccccc2)c1Cl [MMV658988] | 22.86 | 30.08 | PGI release, % of Tx-100 control, average, 5d [3]: 4.97%; PGI release, % of Tx-100 control, average, 12d [4]: 10.18%
2 | CCc1ccc([C@@H]2C[C@H](C(F)(F)F)n3ncc(C(=O)NCc4ccc(OC)cc4)c3N2)cc1 [MMV687180] | -2.14 | -5.92 | –
3 | CC[C@@H]([C@H](C)O)n1ncn(-c2ccc(N3CCN(c4ccc(OC[C@@H]5CO[C@@](Cn6cncn6)(c6ccc(F)cc6F)C5)cc4)CC3)cc2)c1=O [MMV688774, Posaconazole, reference compound] | – | – | cytotoxicity at 10 µM (120 h, 10 µM, singlets, 5 days of incubation, read-out: PGI release, % of the Tx-100 control, 5d): -0.69%; cytotoxicity at 10 µM (288 h, 10 µM, singlets, 12 days of incubation, read-out: PGI release, % of the Tx-100 control, 12d): -1.09%
4 | Cc1cc(NCCc2ccccc2)nc(NC(=N)Nc2ccc(Cl)cc2)n1 [MMV021660] | 5.66 | 4.49 | –
5 | CC(C)NCC(=O)Nc1cccc(C(=O)Nc2cccc(C(F)(F)F)c2)c1 [MMV020165] | 0.28 | -0.10 | –
6 | c1ccc(Oc2ccc(-c3cc(N4CCNCC4)[nH]n3)cc2)cc1 [MMV687706] | -0.18 | 0.70 | –
7 | O=C(NCCc1ccn(-c2ccccc2)n1)C1CCCCC1 [MMV688795] | 0.14 | -0.21 | –
8 | Clc1cccc(CO[C@H]2CCc3ccccc3[C@@H]2n2ccnn2)c1 [MMV676159] | -0.04 | -0.65 | –
9 | CN1CCC(NCc2cccc(-c3ccc(S(=O)(=O)NCc4ccccc4)cc3)c2)CC1 [MMV022029] | 0.43 | 0.82 | –
10 | O=C(NCc1ccco1)N1CCN(Cc2ccc(Cl)s2)CC1 [MMV688555] | 1.40 | 3.17 | –
11 | O=C1[C@@H](Oc2ccccc2)[C@@H](c2ccc(Cl)cc2)N1CCn1cnc2c(NCc3ccccc3)ncnc21 [MMV688352] | 2.57 | 3.05 | –
12 | COc1ccc(-c2cnc3ccc(NCc4ccc(S(N)(=O)=O)cc4)nn23)cn1 [MMV010545] | -0.28 | -0.35 | –
13 | CCCCS(=O)(=O)Nc1ccc2cnn(C)c2c1 [MMV687145] | -0.86 | -2.20 | –
14 | COc1ccc(Nc2ccccc2NC(=O)c2ccc(=O)[nH]c2)cc1 [MMV676554] | 0.17 | 3.85 | –
15 | CCn1cnc2c(Nc3cc(F)cc(F)c3)nc(C#N)nc21 [MMV676881] | 0.06 | -0.62 | –
16 | Clc1ccc(CN2CCN(C3=NCCN3)CC2)cc1Cl [MMV689060] | 0.33 | -1.23 | –
17 | Cc1ccc2[nH]c3c(NCCN(C)C)ncnc3c2c1 [MMV006372] | 0.48 | -0.11 | –
18 | CN1CCN(c2cc(-c3ccc(F)cc3)nc(-c3ccncc3)n2)CC1 [MMV688888] | -2.22 | 0.59 | –
19 | Nc1nccc2ccc(-c3ccc4nccn4c3)cc12 [MMV023233] | -0.34 | -0.36 | –
20 | c1ccc2c(c1)CN(CC1CC1)CC1(CCN(Cc3c[nH]c4cnccc34)CC1)O2 [MMV023183] | -0.64 | -1.24 | –
21 | O=C(CN1CCOCC1)Nc1ccc2ncnc(Nc3ccc(OCc4cccc(F)c4)c(Cl)c3)c2c1 [MMV688274] | -0.59 | -0.94 | –
22 | CCc1ccccc1-n1c(C)cn2c3c(=O)n(C(C(=O)OC)C(C)C)c(=O)n(C)c3nc12 (centres unmarked) [MMV688550] | -2.01 | -6.25 | –
23 | Cc1nn(Cc2ccccc2)c(Cl)c1C(=O)NC1CCCCCC1 [MMV063404] | 0.0181 | 0.28 | –
24 | COc1ccc(Oc2ccc([C@@H](C)N(C)c3ncc4c(N)nc(N)nc4n3)cc2)cc1 [MMV690102] | 73.64 | 91.71 | PGI release, % of Tx-100 control, average, 5d (1 µM, triplicates, 5 days of incubation): -0.29%; PGI release, % of Tx-100 control, average, 12d (1 µM, triplicates, 12 days of incubation): 5.50%; activity in the screen at 10 μM (confirmed in triplicates, >20% relative PGI release) (10 μM, 5 and 12 days): active; PGI release, % of Tx-100 control, average, 5d [3]: 25.36%; PGI release, % of Tx-100 control, average, 12d [4]: 31.53%
25 | CCCn1c(CNc2ccccc2O)nc2ccccc21 [MMV676445] | -1.26 | 2.30 | –
26 | CC(C)(CN)c1nc(-c2ccc(Cl)c(O)c2)c(-c2ccnc(N)n2)[nH]1 [MMV030734] | -0.31 | -0.25 | –

Row | SMILES | PGI release, % of the Tx-100 control, 5d [1] [%] | PGI release, % of the Tx-100 control, 12d [2] [%] | other results
27 | Cc1ccc(S(=O)(=O)n2cc(-c3ccnc(N)c3)c3cc(Br)cnc32)cc1 [MMV024114] | 3.26 | 5.70 | –
28 | c1ccc(-c2cc(N3CCCCC3)c3ccccc3n2)nc1 [MMV560185] | 0.52 | -0.29 | –
29 | O=C(C1CCN(c2nnc(-n3cccc3)s2)CC1)N1CCC(Cc2ccccc2)CC1 [MMV676478] | -4.04 | 0.80 | –
30 | COc1ccccc1C(C)NCC(=O)Nc1cc(C(F)(F)F)ccc1Cl (centres unmarked) [MMV020321] | 0.0279 | 2.67 | –
31 | CCc1nn(C)c(C(=O)NCc2ccc(Oc3ccc(C)cc3)cc2)c1Cl [MMV688934, Tolfenpyrad] | – | – | cytotoxicity at 10 µM (120 h, read-out: PGI release, % of the Tx-100 control, 5d): -1.16%; cytotoxicity at 10 µM (288 h, read-out: PGI release, % of the Tx-100 control, 12d): 10.3%
32 | CC1(C)Cc2c(c(N3CCOCC3)nc3snc(Br)c23)CO1 [MMV687794] | -0.77 | -1.36 | –
33 | NC(=O)c1cc(-c2ccsc2)ccc1OCCOc1ccccc1 [MMV687138] | -3.72 | 0.14 | –
34 | Cc1cc(C)c2cc(C(=O)NC3CCCCCCC3)[nH]c2c1 [MMV687146] | -4.26 | -3.34 | –
35 | CNC(=O)C1Cc2c([nH]c3cc(Cl)ccc23)C2(CCN(CCc3ccccc3)CC2)N1 (centres unmarked) [MMV031011] | 4.51 | 91.49 | PGI release, % of Tx-100 control, average, 5d [3]: -0.91%; PGI release, % of Tx-100 control, average, 12d [4]: -1.45%
36 | CCOc1ccc(-c2nc(CNCCc3ccc(F)cc3)cs2)cc1 [MMV688938] | 2.65 | 3.55 | –
37 | CCS(=O)(=O)N(Cc1ccco1)Cc1cc2ccc(C)cc2[nH]c1=O [MMV676398] | -0.33 | 4.91 | –
38 | COc1cccc(CC(=O)N2CCC(n3c(C)nc4ccc(F)cc43)CC2)c1 [MMV020081] | -1.15 | -0.33 | –
39 | CCC(C)NC(=O)c1ccc(NC(=O)C2(c3ccccc3)CCCC2)cc1 (centres unmarked) [MMV146306] | -1.42 | -5.77 | –
40 | COc1ccc(-c2cnc3cnc(-c4cccc(OC(C)C)c4)cn23)cc1 [MMV688270] | 0.02 | -0.02 | –
41 | COc1cc(C2=NCCN2)cc2cc(-c3ccc(C4=NCCN4)cc3)oc12 [MMV688362] | 0.03 | 0.64 | –
42 | Clc1ccc(Cl)c(CO[C@H]2CCCC[C@@H]2n2ccnc2)c1 [MMV676048] | 1.62 | 0.30 | –
43 | Nc1ncnc2c1c(Cc1cccc3ccccc13)nn2CC1CCNCC1 [MMV676182] | 0.88 | -0.92 | –
44 | CCn1ncc2c(NC3CCOCC3)c(CNC(=O)c3ccnn3C)c(C)nc21 [MMV026356] | -0.13 | 0.36 | –
45 | c1ccc(Oc2ccc(-c3cc(CN4CCOCC4)[nH]n3)cc2)cc1 [MMV676161] | -0.68 | -1.33 | –
46 | Cc1cc2nc(NC(=O)C(C)(C)C)nc(Cl)c2n1Cc1ccc(Cl)cc1 [MMV688704] | 5.09 | -0.53 | –
47 | CC(C)(C)C(=O)N(CCCCCCN1C[C@H](O)[C@@H](O)[C@H](O)[C@H]1CO)C1CCCCCC1 [MMV688543] | -1.12 | -4.43 | –
48 | Nc1nccc2ccc(Oc3ccncc3)cc12 [MMV026313] | -0.49 | -0.99 | –
49 | O=C(Nc1cccc(Cl)c1)c1cnc(N2CCN(c3ccncc3)CC2)c(Cl)c1 [MMV024406] | 4.18 | 4.57 | –
50 | CC(C)C(NC(=O)Cc1cccc2ccccc12)C(=O)Nc1cccc(C#N)c1 (centres unmarked) [MMV020591] | -0.00326 | 0.72 | –
51 | COc1ccc(-c2cncc3ccc(C(=O)NCCCn4ccnc4)nc23)cc1 [MMV020670] | 0.79 | -1.21 | –
52 | COc1ccc(Cl)cc1NC(=O)CN(C)C(=O)c1cnn(-c2ccccc2)n1 [MMV020710] | -1.15 | -0.53 | –
